Where two headings read alike, the source gives them in different places.
Legend:
Assay type in all cases: cell-based
SMN2 CJ mRNA = experiment: Gene panel canonical junction qPCR splicing assay, SMN2; details: Table 4, read-out: SMN2 IC50 (decrease in CJ mRNA levels)
Outline: (§1)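 A673 or K562 cells treated with compound; canonical-junction mRNA measured by RT-qPCR with junction-spanning primer/probe sets, normalized to GAPDH, GUSB or PPIA and DMSO (2^−ΔΔCt). IC50 for CJ decrease from 4-parameter logistic fit of percentage response.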

HTT CJ mRNA = experiment: Gene panel canonical junction qPCR splicing assay, HTT; details: Table 4, read-out: HTT IC50 (decrease in CJ mRNA levels)
Outline: as §1

HTT mRNA = experiment: Splicing assay (RT-qPCR) of HTT mRNA alternative junction (AJ) and canonical junction (CJ)
Outline: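 A673 (adherent, 24 h pre-plating) or K562 cells treated 24 h at 37 °C with an 11-point 3-fold dilution series, top 10 uM, DMSO ≤0.25%. Lysates analysed by one-step RT-qPCR for HTT canonical (CJ) and alternative-exon (AJ) junctions, normalised to PPIA (A673) or GAPDH/GUSB (K562).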

Target C CJ mRNA = experiment: Gene panel canonical junction qPCR splicing assay, Target C; details: Table 4, read-out: Target C IC50 (decrease in CJ mRNA levels)
Outline: as §1

[1] = decrease in CJ mRNA, A673 or K562 cells, 24 hours, read-out: HTT CJ IC50
[2] = increase in AJ mRNA, A673 or K562 cells, 24 hours, read-out: HTT AJ AC50

IC50 (SMN2 CJ mRNA) [nM] | IC50 (HTT CJ mRNA) [nM] | IC50 (HTT mRNA; [1]) [nM] | IC50 (Target C CJ mRNA) [nM] | Structure (SMILES) | AC50 (HTT mRNA; [2]) [nM] | AC50 (HTT mRNA; 24 h, read-out: HTT AJ AC50 (nM)) [nM] | IC50 (HTT mRNA; 24 h, read-out: HTT CJ IC50 (nM)) [nM]
100 to 1000 | 1000 to 10000 | 1000 to 10000 | > 10000 | Cn1cc2c(O)c(-c3cc4ccc(C5CCNCC5)nc4cn3)cc(Br)c2n1 [Compound 141] | 1000 to 10000 | – | –
1000 to 10000 | > 10000 | > 10000 | 1000 to 10000 | Cn1cc2c(O)c(-c3ccc4nc(C5CCNCC5)ccc4n3)ccc2n1 [Compound 105, 2-methyl-5-[6-(piperidin-4-yl)-1,5-naphthyridin-2-yl]indazol-4-ol] | > 10000 | – | –
< 100 | 100 to 1000 | 100 to 1000 | 1000 to 10000 | CCN1CCC(c2ccc3nc(-c4cc5cn(C)nc5cc4O)ccc3n2)CC1 [Compound 138, 5-[6-(1-ethylpiperidin-4-yl)-1,5-naphthyridin-2-yl]-2-methylindazol-6-ol] | 100 to 1000 | – | –
< 100 | < 100 | < 100 | 100 to 1000 | CN[C@@H]1CCN(c2ccc3nc(-c4cc5cn(C)nc5cc4O)ccc3n2)C1 [Compound 172] | 100 to 1000 | – | –
< 100 | < 100 | < 100 | 100 to 1000 | Cc1nc2cc(O)c(-c3ccc4nc(N5CC[C@H](NC6CC6)C5)ccc4n3)cc2o1 (single isomer, unassigned) [Compound 211, 6-{6-[3-(cyclopropylamino)pyrrolidin-1-yl]-1,5-naphthyridin-2-yl}-2-methyl-1,3-benzoxazol-5-ol] | < 100 | – | –
< 100 | < 100 | < 100 | < 100 | Cn1cc2cc(-c3ccc4nc(N5CC[C@H](NC(C)(C)C)C5)ccc4n3)c(O)cc2n1 [Compound 154, 5-{6-[(3S)-3-(tert-butylamino)pyrrolidin-1-yl]-1,5-naphthyridin-2-yl}-2-methylindazol-6-ol] | < 100 | – | –
< 100 | 100 to 1000 | 100 to 1000 | 100 to 1000 | Cn1cc2cc(-c3ccc4nc(N5CCC(N6CCCC6)C5)ccc4n3)c(O)cc2n1 (stereo not drawn) [Compound 125, 5-(6-[[1,3 m ? bipyrrolidin]-1 ? yl]-1,5-naphthyridin-2-yl)-2-methylindazol-6-ol] | 100 to 1000 | – | –
< 100 | < 100 | < 100 | 100 to 1000 | CCN[C@H]1CCN(c2ccc3nc(-c4cc5cn(C)nc5cc4O)ccc3n2)C1 [Compound 179] | < 100 | – | –
< 100 | < 100 | < 100 | 100 to 1000 | Cc1nc2cc(O)c(-c3ccc4nc(N5CCC(NC6CCC6)C5)ccc4n3)cc2o1 (single isomer, unassigned) [Compound 229, 6-{6-[3-(cyclobutylamino)pyrrolidin-1-yl]-1,5-naphthyridin-2-yl}-2-methyl-1,3-benzoxazol-5-ol] | < 100 | – | –
< 100 | 100 to 1000 | 100 to 1000 | 100 to 1000 | Cn1cc2cc(-c3ccc4nc(N5CC[C@@H](NCC6CC6)C5)ccc4n3)c(O)cc2n1 [Compound 195] | < 100 | – | –
1000 to 10000 | 1000 to 10000 | 1000 to 10000 | 1000 to 10000 | Cc1cn2cc(-c3ccc4nc(N5CCC(NC(C)(C)C)C5)ccc4n3)nc(C)c2n1 (stereo not drawn) [Compound 206] | 1000 to 10000 | – | –

Structure (SMILES) | IC50 (SMN2 CJ mRNA) [nM] | IC50 (HTT CJ mRNA) [nM] | IC50 (HTT mRNA; [1]) [nM] | IC50 (Target C CJ mRNA) [nM] | AC50 (HTT mRNA; [2]) [nM] | AC50 (HTT mRNA; 24 h, read-out: HTT AJ AC50 (nM)) [nM] | IC50 (HTT mRNA; 24 h, read-out: HTT CJ IC50 (nM)) [nM]
Cc1cn2nc(-c3ccc4nc(N5CCC(NC(C)(C)C)C5)ccc4n3)cc(C)c2n1 (stereo not drawn) [Compound 186, N-tert-butyl-1-(6-{2,8-dimethylimidazo[1,2-b]pyridazin-6-yl}-1,5-naphthyridin-2-yl)pyrrolidin-3-amine] | < 100 | < 100 | – | < 100 | – | < 100 | < 100
